# Legend:
# BACE1 [1] = biological target: T1, BACE1 (Homo sapiens, UniProt P56817); assay: In Vitro BACE Cell-based Assay (HEK cell assay): Aβ40 in conditioned medium of cells stably expressing Amyloid Precursor Protein, sandwich ELISA; settings: Aβ40, 24 h incubation, read-out: HEK cell assay
# Method: In Vitro BACE Cell-based Assay
# The cell-based assay measures inhibition or reduction of Aβ40 in conditioned medium of test compound treated cells expressing amyloid precursor protein.
# Cells stably expressing Amyloid Precursor Protein (APP) were plated at a density of 40K cells/well in 96 well plates (Costar). The cells were cultivated for 24 hours at 37° C. and 5% CO2 in DMEM supplemented with 10% FBS. The test compounds were then added to cells in 10-point dose response concentrations with the starting concentration being either 100 μM or 10 μM. The compounds were diluted from stock solutions in DMSO and the final DMSO concentration of the test compounds on cells was 0.1%. After 24 h of incubation with the test compounds the supernatant conditioned media was collected and the Aβ 40 levels were determined using a sandwich ELISA. The IC50 of the compound was calculated from the percent of control or percent inhibition of Aβ 40 as a function of the concentration of the test compound.
# The sandwich ELISA to detect Aβ 40 was performed in 96 well microtiter plates, which were pre-treated with goat anti-rabbit IgG (Pierce). The capture and detecting antibody pair that were used to detect Aβ 40 from cell supernatants were affinity purified pAb40 (Biosource) and biotinylated 6E10 (Signet Labs Inc.), respectively. The optimal concentration for the pAb40 antibody was 3 μg/ml in Superblock/TBS (Pierce) that was supplemented with 0.05% Tween 20 (Sigma).
# Cellular supernatants were incubated with the capture antibody for 3 h at 4° C., followed by 3 wash steps in TBS-tween (0.05%). The detecting antibody incubation was for 2 h at 4° C., again followed by the wash steps as described previously. The final readout of the ELISA is Time-Resolved Fluorescence (counts per minute) using Delfia reagents Streptavidin-Europium and Enhancement solutions (Perkin Elmer) and the Victor 2 multilabel counter (Perkin Elmer).
# BACE1 [2] = biological target: T1, BACE1; assay: In Vitro Enzymatic BACE FRET (Fluorescence Resonance Energy Transfer) Assay; assay type: biochemical; settings: read-out: BACE1 FRET assay
# Outline: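 One-hour incubation initiated by 50 nM quenched FRET peptide spanning the BACE cleavage site, in 0.05 M acetate (pH 4.2), 100 uM genapol, 10% DMSO final. Tris addition neutralizes pH to end the reaction before fluorescence measurement.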
# T1 sequence (P56817 46-501, species assumed): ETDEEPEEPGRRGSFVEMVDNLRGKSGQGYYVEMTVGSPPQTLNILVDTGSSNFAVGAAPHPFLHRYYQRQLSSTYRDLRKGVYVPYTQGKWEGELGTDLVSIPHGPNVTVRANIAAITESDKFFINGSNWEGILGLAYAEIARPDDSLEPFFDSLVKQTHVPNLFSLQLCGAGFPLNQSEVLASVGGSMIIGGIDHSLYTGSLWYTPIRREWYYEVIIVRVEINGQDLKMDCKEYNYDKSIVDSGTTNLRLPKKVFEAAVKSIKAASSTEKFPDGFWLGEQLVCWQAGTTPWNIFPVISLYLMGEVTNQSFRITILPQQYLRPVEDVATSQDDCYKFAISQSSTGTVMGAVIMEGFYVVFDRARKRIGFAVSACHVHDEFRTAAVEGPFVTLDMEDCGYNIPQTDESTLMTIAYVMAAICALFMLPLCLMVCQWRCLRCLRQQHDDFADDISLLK
SMILES,IC50 (BACE1 [1]; Table 1),IC50 (BACE1 [2]; Table 1),IC50 (BACE1 [1]; Table II),IC50 (BACE1 [2]; Table II)
"Cc1ccc2c(c1)Oc1ccc(-c3ccccc3Cl)cc1C21COC(N)=N1 (stereo not drawn) [Example 29, 2′-(2-chlorophenyl)-6′-methylspiro[1,3-oxazole-4,9′-xanthen]-2-amine]",> 5000 nM,> 5000 nM,–,–
"COc1cccc(-c2ccc3c(c2)C2(COC(N)=N2)c2ccc(C)cc2O3)c1F (stereo not drawn) [Example 30, 2′-(2-fluoro-3-methoxyphenyl)-6′-methylspiro[1,3-oxazole-4,9′-xanthen]-2-amine]",> 5000 nM,> 5000 nM,–,–
"COc1ccc2c(c1)C1(COC(N)=N1)c1cc(Br)ccc1O2 (stereo not drawn) [Example 35, 2′-bromo-7′-methoxyspiro[1,3-oxazole-4,9′-xanthen]-2-amine]",> 5000 nM,> 5000 nM,–,–
"NC1=N[C@@]2(CS1)c1cc(Cl)ccc1Oc1ccc(-c3cncnc3)cc12 [Example 39, (4R)-2′-chloro-7′-(5-pyrimidinyl)spiro[1,3-thiazole-4,9′-xanthen]-2-amine]",–,–,> 5000 nM,100 to 1000 nM
"CC(C)(C)COc1ccc2c(c1)[C@]1(COC(N)=N1)c1cc(N3CCOCC3)ccc1O2 [Example 43, (4S)-2′-(2,2-dimethylpropoxy)-7′-(4-morpholinyl)spiro[1,3-oxazole-4,9′-xanthen]-2-amine]",–,–,100 to 1000 nM,100 to 1000 nM
"CCCc1ccc2c(c1)[C@@]1(COC(N)=N1)c1cc(-c3cncnc3)ccc1O2 [Example 53, (4S)-2′-propyl-7′-(5-pyrimidinyl)spiro[1,3-oxazole-4,9′-xanthen]-2-amine]",–,–,100 to 1000 nM,< 100 nM
"COc1ccc2c(c1)[C@]1(COC(N)=N1)c1cc(-c3cncnc3)cnc1O2 [Example 54, (5R)-7-methoxy-3-(5-pyrimidinyl)spiro[chromeno[2,3-b]pyridine-5,4′-[1,3]oxazol]-2′-amine]",–,–,> 5000 nM,1000 to 5000 nM
"COc1ccc2c(c1)[C@@]1(COC(N)=N1)c1cc(NC(=O)c3ccc(Cl)cn3)ccc1O2 [Example 55, N-((4R)-2-amino-7′-methoxyspiro[1,3-oxazole-4,9′-xanthen]-2′-yl)-5-chloro-2-pyridinecarboxamide]",–,–,100 to 1000 nM,< 100 nM
"NC1=N[C@]2(CO1)c1cc(OCC3CCCO3)ccc1Oc1ccc(-c3cncnc3)cc12 (stereo partly drawn) [Example 60, (4S)-2′-(5-pyrimidinyl)-7′-(tetrahydro-2-furanylmethoxy)spiro[1,3-oxazole-4,9′-xanthen]-2-amine]",–,–,< 100 nM,< 100 nM
"CC(C)(C)CCOc1ccc2c(c1)[C@]1(COC(N)=N1)c1cc(-c3cncnc3)ccc1O2 [Example 70, (4S)-2′-(3,3-dimethylbutoxy)-7′-(5-pyrimidinyl)spiro[1,3-oxazole-4,9′-xanthen]-2-amine]",–,–,100 to 1000 nM,< 100 nM
"CC(C)(C)COc1ccc2c(c1)[C@]1(COC(N)=N1)c1cc(-c3ccc4[nH]ccc4c3)ccc1O2 [Example 73, (4S)-2′-(2,2-dimethylpropoxy)-7′-(1H-indol-5-yl)spiro[1,3-oxazole-4,9′-xanthen]-2-amine]",–,–,1000 to 5000 nM,100 to 1000 nM
"NC1=N[C@]2(CO1)c1cc(OCC3CCCC3)ccc1Oc1ccc(-c3cncnc3)cc12 [Example 74, (4S)-2′-(cyclopentylmethoxy)-7′-(5-pyrimidinyl)spiro[1,3-oxazole-4,9′-xanthen]-2-amine]",–,–,< 100 nM,< 100 nM
"CC(C)(C)COc1ccc2c(c1)[C@]1(COC(N)=N1)c1cc(-c3ccoc3)ccc1O2 [Example 76, (4S)-2′-(2,2-dimethylpropoxy)-7′-(3-furanyl)spiro[1,3-oxazole-4,9′-xanthen]-2-amine]",–,–,1000 to 5000 nM,< 100 nM
"Cc1ncccc1-c1ccc2c(c1)[C@@]1(COC(N)=N1)c1cc(OCC(C)(C)C)ccc1O2 [Example 79, (4S)-2′-(2,2-dimethylpropoxy)-7′-(2-methyl-3-pyridinyl)spiro[1,3-oxazole-4,9′-xanthen]-2-amine]",–,–,100 to 1000 nM,100 to 1000 nM
"Cc1ccc(-c2ccc3c(c2)[C@@]2(COC(N)=N2)c2cc(OCC(C)(C)C)ccc2O3)cn1 [Example 80, (4S)-2′-(2,2-dimethylpropoxy)-7′-(6-methyl-3-pyridinyl)spiro[1,3-oxazole-4,9′-xanthen]-2-amine]",–,–,1000 to 5000 nM,100 to 1000 nM
"COc1ccc(-c2ccc3c(c2)[C@@]2(COC(N)=N2)c2cc(OCC(C)(C)C)ccc2O3)cn1 [Example 87, (4S)-2′-(2,2-dimethylpropoxy)-7′-(6-methoxy-3-pyridinyl)spiro[1,3-oxazole-4,9′-xanthen]-2-amine]",–,–,1000 to 5000 nM,100 to 1000 nM

# More lines, now with the values ahead:
IC50 (BACE1 [1]; Table 1),IC50 (BACE1 [2]; Table 1),IC50 (BACE1 [1]; Table II),IC50 (BACE1 [2]; Table II),SMILES
1000 to 5000 nM,> 5000 nM,–,–,"COc1ccc2c(c1)C1(COC(N)=N1)c1cc(-c3ccc(OC(F)(F)F)cc3)ccc1O2 (stereo not drawn) [Example 27, 2′-methoxy-7′-(4-(trifluoromethoxy)phenyl)spiro[1,3-oxazole-4,9′-xanthen]-2-amine]"
1000 to 5000 nM,> 5000 nM,–,–,"COc1ccc2c(c1)C1(COC(N)=N1)c1cc(-c3ccccc3Cl)ccc1O2 (stereo not drawn) [Example 28, 2′-(2-chlorophenyl)-7′-methoxyspiro[1,3-oxazole-4,9′-xanthen]-2-amine]"
1000 to 5000 nM,> 5000 nM,–,–,"COc1ccc2c(c1)C1(COC(N)=N1)c1cc(-c3ccccc3C)ccc1O2 (stereo not drawn) [Example 32, 2′-methoxy-7′-(2-methylphenyl)spiro[1,3-oxazole-4,9′-xanthen]-2-amine]"
> 5000 nM,> 5000 nM,–,–,"Cc1ccc2c(c1)Oc1ccc(Br)cc1C21COC(N)=N1 (stereo not drawn) [Example 37, 2′-bromo-6′-methylspiro[1,3-oxazole-4,9′-xanthen]-2-amine]"
–,–,100 to 1000 nM,< 100 nM,"CC(C)(C)COc1ccc2c(c1)[C@]1(COC(N)=N1)c1cc(C#CC3CC3)ccc1O2 [Example 40, (4S)-2′-(cyclopropylethynyl)-7′-(2,2-dimethylpropoxy)spiro[1,3-oxazole-4,9′-xanthen]-2-amine]"
–,–,1000 to 5000 nM,100 to 1000 nM,"CC(C)(C)COc1ccc2c(c1)C1(COC(N)=N1)c1cc(Br)ccc1O2 (stereo not drawn) [Example 57, 2′-bromo-7′-(2,2-dimethylpropoxy)spiro[1,3-oxazole-4,9′-xanthen]-2-amine]"
–,–,< 100 nM,< 100 nM,"NC1=N[C@]2(CO1)c1cc(OCC3CC3(F)F)ccc1Oc1ccc(-c3cncnc3)cc12 (stereo partly drawn) [Example 62, (4S)-2′-((2,2-difluorocyclopropyl)methoxy)-7′-(5-pyrimidinyl)spiro[1,3-oxazole-4,9′-xanthen]-2-amine]"
–,–,1000 to 5000 nM,< 100 nM,"CC(C)(C)COc1ccc2c(c1)[C@]1(COC(N)=N1)c1cc(-c3cc(Cl)ccc3F)cnc1O2 [Example 69, (5R)-3-(5-chloro-2-fluorophenyl)-7-(2,2-dimethylpropoxy)spiro[chromeno[2,3-b]pyridine-5,4′-[1,3]oxazol]-2′-amine]"
–,–,100 to 1000 nM,< 100 nM,"CC(C)(C)COc1ccc2c(c1)[C@]1(COC(N)=N1)c1cc(-c3cc(Cl)ccc3F)ccc1O2 [Example 75, (4S)-2′-(5-chloro-2-fluorophenyl)-7′-(2,2-dimethylpropoxy)spiro[1,3-oxazole-4,9′-xanthen]-2-amine]"
–,–,1000 to 5000 nM,< 100 nM,"COc1ncccc1-c1ccc2c(c1)[C@@]1(COC(N)=N1)c1cc(OCC(C)(C)C)ccc1O2 [Example 77, (4S)-2′-(2,2-dimethylpropoxy)-7′-(2-methoxy-3-pyridinyl)spiro[1,3-oxazole-4,9′-xanthen]-2-amine]"
–,–,< 100 nM,< 100 nM,"Cc1cncc(-c2ccc3c(c2)[C@@]2(COC(N)=N2)c2cc(OCC(C)(C)C)ccc2O3)c1 [Example 81, (4S)-2′-(2,2-dimethylpropoxy)-7′-(5-methyl-3-pyridinyl)spiro[1,3-oxazole-4,9′-xanthen]-2-amine]"
–,–,1000 to 5000 nM,100 to 1000 nM,"Cn1cc(-c2ccc3c(c2)[C@@]2(COC(N)=N2)c2cc(OCC(C)(C)C)ccc2O3)cn1 [Example 82, (4S)-2′-(2,2-dimethylpropoxy)-7′-(1-methyl-1H-pyrazol-4-yl)spiro[1,3-oxazole-4,9′-xanthen]-2-amine]"
–,–,1000 to 5000 nM,< 100 nM,"CC(C)(C)COc1ccc2c(c1)[C@]1(COC(N)=N1)c1cc(-c3ccccc3)ccc1O2 [Example 85, (4S)-2′-(2,2-dimethylpropoxy)-7′-phenylspiro[1,3-oxazole-4,9′-xanthen]-2-amine]"
–,–,100 to 1000 nM,< 100 nM,"Cc1ccncc1-c1ccc2c(c1)[C@@]1(COC(N)=N1)c1cc(OCC(C)(C)C)ccc1O2 [Example 86, (4S)-2′-(2,2-dimethylpropoxy)-7′-(4-methyl-3-pyridinyl)spiro[1,3-oxazole-4,9′-xanthen]-2-amine]"

# Reference: patent US8426447B2, “Spiro-tricyclic ring compounds as beta-secretase modulators and methods of use” (Amgen Inc., priority 2008, dated 2013)
